Results reported in patent US20260191968A1, “PROTAC DEGRADERS OF MLLT1 AND/OR MLLT3” (DARK BLUE THERAPEUTICS LTD, priority 2024, published 2026).

Assays:
MV4-11 cells = assay: MV4-11 cellular proliferative assay, Assay Format B (CTG 2.0, 168 h); format: cell-based; details: Homo sapiens, 168 h (7 days), CTG 2.0, read-out: IC50 (MV4-11 cellular proliferative assay, Assay format B)
Protocol: MV4-11 cells at a confluency of ~50-80% was used for cell growth assay. 600 cells/well in a 384-well opaque cell culture plate (6007680; Perkin Elmer) were seeded in 40 μL of complete medium (IMDM+10% FBS+1X Penicillin-Streptomycin). Cells were incubated overnight at 37° C., 5% CO2. 10 mM DMSO stocks were prepared, cells were treated with 10 concentrations of test compounds starting from 1 uM or 100 nM, 3-fold dilution in 10 uL (5×concentration) of complete medium. Final DMSO concentration was 0.3%. Culture plates were centrifuged at 40×g, 30s. Cells were incubated with compounds for 168 h (7 days). After 7 days, 20 uL CTG 2.0 reagent (G9242; Promega) was added per well and luminescence reading was taken in Envision Xcite 2105 multimode plate reader. Data was analyzed in GraphPad Prism 10.0 and data was shown as % viability with respect to DMSO control and dose-response curves were generated using four parameter logistic regression. Assay quality was determined by z-factor calculation using positive and negative controls.

MLLT1 = biological target: T1, MLLT1 (Homo sapiens, UniProt Q03111); assay: MLLT1 degradation assay in MV4-11 cells (JESS chemiluminescent detection), three concentrations, 24 h; format: cell-based; details: with respect to DMSO control
T1 construct: host or cells: MV4-11
T1 sequence (Q03111 1-559): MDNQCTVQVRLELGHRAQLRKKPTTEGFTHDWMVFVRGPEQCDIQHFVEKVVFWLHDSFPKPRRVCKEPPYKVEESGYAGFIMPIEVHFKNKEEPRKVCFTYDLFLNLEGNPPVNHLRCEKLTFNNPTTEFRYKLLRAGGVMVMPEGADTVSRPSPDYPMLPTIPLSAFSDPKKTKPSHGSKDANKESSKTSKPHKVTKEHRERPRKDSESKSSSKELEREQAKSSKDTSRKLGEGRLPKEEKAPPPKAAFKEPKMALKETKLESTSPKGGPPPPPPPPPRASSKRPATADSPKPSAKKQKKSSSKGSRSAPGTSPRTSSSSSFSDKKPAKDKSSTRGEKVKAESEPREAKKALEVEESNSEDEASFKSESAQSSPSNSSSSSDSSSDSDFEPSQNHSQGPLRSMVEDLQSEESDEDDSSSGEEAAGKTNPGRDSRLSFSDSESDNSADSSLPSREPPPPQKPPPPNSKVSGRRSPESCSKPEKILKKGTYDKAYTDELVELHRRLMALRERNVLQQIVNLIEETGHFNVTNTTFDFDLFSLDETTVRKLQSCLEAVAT
In short: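 MV4-11 cells treated 24 h at 37° C, 5% CO2 with 1000, 100 and 10 nM compound (0.1% DMSO final). MLLT1 quantified by automated capillary chemiluminescent immunodetection; band peak area expressed as % degradation relative to DMSO control.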

Structure (SMILES) | IC50 (MV4-11 cells) [nM] | MLLT1% Degradation @ 0.01 μM (MLLT1) | MLLT1% Degradation @ 0.1 μM (MLLT1) | MLLT1% Degradation @ 1 μM (MLLT1)
COc1cc(N2CCN(CC3CCN(c4cccc5c4CN(C4CCC(=O)NC4=O)C5=O)CC3)CC2)cc(F)c1C(=O)Nc1cc2[nH]c([C@H]3CCCN3C)cc2cn1 (stereo partly drawn) [Example 120, 4-(4-((1-(2-(2,6-dioxopiperidin-3-yl)-1-oxoisoindolin-4-yl)piperidin-4-yl)methyl)piperazin-1-yl)-2-fluoro-6-methoxy-N-(2-((R)-1-methylpyrrolidin-2-yl)-1H-pyrrolo[3,2-c]pyridin-6-yl)benzamide] | ≤ 100 | B (Category B: 50% ≤ B < 75% degradation) | A (Category A: A ≥ 75% degradation) | C (Category C: 25% ≤ C < 50% degradation)
CN1CCC[C@@H]1c1cc2cnc(NC(=O)c3ccc(OCCN4CCC5(CC4)CCN(c4ccc6c(c4)CN(C4CCC(=O)NC4=O)C6=O)CC5)cc3)cc2[nH]1 (stereo partly drawn) [Example 164, 4-(2-(9-(2-(2,6-dioxopiperidin-3-yl)-1-oxoisoindolin-5-yl)-3,9-diazaspiro[5.5]undecan-3-yl)ethoxy)-N-(2-((R)-1-methylpyrrolidin-2-yl)-1H-pyrrolo[3,2-c]pyridin-6-yl)benzamide] | ≤ 100 | A (Category A: A ≥ 75% degradation) | A (Category A: A ≥ 75% degradation) | A (Category A: A ≥ 75% degradation)
CN1CCC[C@@H]1c1cc2cnc(NC(=O)c3ccc(N4CCN(Cc5ccc(-c6cccc7c6CN(C6CCC(=O)NC6=O)C7=O)cc5)CC4)cc3)cc2[nH]1 (stereo partly drawn) [Example 98, 4-(4-(4-(2-(2,6-dioxopiperidin-3-yl)-1-oxoisoindolin-4-yl)benzyl)piperazin-1-yl)-N-(2-((R)-1-methylpyrrolidin-2-yl)-1H-pyrrolo[3,2-c]pyridin-6-yl)benzamide] | ≤ 100 | A (Category A: A ≥ 75% degradation) | A (Category A: A ≥ 75% degradation) | A (Category A: A ≥ 75% degradation)
CN1CCC[C@@H]1c1cc2cnc(NC(=O)c3ccc(CCCCC#Cc4cccc5c4CN([C@H]4CCC(=O)NC4=O)C5=O)cc3)cc2[nH]1 (relative stereo) [Example 104, 4-(6-(2-((rel-S)-2,6-dioxopiperidin-3-yl)-1-oxoisoindolin-4-yl)hex-5-yn-1-yl)-N-(2-((R)-1-methylpyrrolidin-2-yl)-1H-pyrrolo[3,2-c]pyridin-6-yl)benzamide] | ≤ 100 | – | – | –
CN1CCC[C@@H]1c1cc2cnc(NC(=O)c3ccc(CCCCC#Cc4cccc5c4CN([C@@H]4CCC(=O)NC4=O)C5=O)cc3)cc2[nH]1 (relative stereo) [Example 105, 4-(6-(2-((rel-R)-2,6-dioxopiperidin-3-yl)-1-oxoisoindolin-4-yl)hex-5-yn-1-yl)-N-(2-((R)-1-methylpyrrolidin-2-yl)-1H-pyrrolo[3,2-c]pyridin-6-yl)benzamide] | ≤ 100 | – | – | –
CN1CCC[C@@H]1c1cc2cnc(NC(=O)c3ccc(N4CCC(c5ccc(-c6cccc7c6C(=O)N(C6CCC(=O)NC6=O)C7=O)cc5)CC4)nc3)cc2[nH]1 (stereo partly drawn) [Example 178, 6-(4-(4-(2-(2,6-dioxopiperidin-3-yl)-1,3-dioxoisoindolin-4-yl)phenyl)piperidin-1-yl)-N-(2-((R)-1-methylpyrrolidin-2-yl)-1H-pyrrolo[3,2-c]pyridin-6-yl)nicotinamide] | – | C (Category C: 25% ≤ C < 50% degradation) | B (Category B: 50% ≤ B < 75% degradation) | B (Category B: 50% ≤ B < 75% degradation)
CN1CCC[C@@H]1c1cc2cnc(NC(=O)c3ccc(N4CCN(CC5CCN(c6cccc7c6C(=O)N(C6CCC(=O)NC6=O)C7=O)CC5)CC4)nc3)cc2[nH]1 (stereo partly drawn) [Example 5, 6-(4-((1-(2-(2,6-dioxopiperidin-3-yl)-1,3-dioxoisoindolin-4-yl)piperidin-4-yl)methyl)piperazin-1-yl)-N-(2-((R)-1-methylpyrrolidin-2-yl)-1H-pyrrolo[3,2-c]pyridin-6-yl)nicotinamide] | – | B (Category B: 50% ≤ B < 75% degradation) | A (Category A: A ≥ 75% degradation) | A (Category A: A ≥ 75% degradation)

Further lines, with some results ahead:

IC50 (MV4-11 cells) [nM] | MLLT1% Degradation @ 0.01 μM (MLLT1) | MLLT1% Degradation @ 0.1 μM (MLLT1) | Structure (SMILES) | MLLT1% Degradation @ 1 μM (MLLT1)
≤ 100 | A (Category A: A ≥ 75% degradation) | A (Category A: A ≥ 75% degradation) | CN1CCC[C@@H]1c1cc2cnc(NC(=O)c3ccc(N4CCN(CCC5CCN(c6cccc7c6CN(C6CCC(=O)NC6=O)C7=O)CC5)CC4)nc3)cc2[nH]1 (stereo partly drawn) [Example 193, 6-(4-(2-(1-(2-(2,6-dioxopiperidin-3-yl)-1-oxoisoindolin-4-yl)piperidin-4-yl)ethyl)piperazin-1-yl)-N-(2-((R)-1-methylpyrrolidin-2-yl)-1H-pyrrolo[3,2-c]pyridin-6-yl)nicotinamide] | B (Category B: 50% ≤ B < 75% degradation)
≤ 100 | A (Category A: A ≥ 75% degradation) | A (Category A: A ≥ 75% degradation) | C[C@@H]1CN(CC2CCN(c3cccc4c3CN(C3CCC(=O)NC3=O)C4=O)CC2)CCN1c1ccc(C(=O)Nc2cc3[nH]c([C@H]4CCCN4C)cc3cn2)cc1 (relative stereo) [Example 135, 4-((R)-4-((1-(2-((rel-S)-2,6-dioxopiperidin-3-yl)-1-oxoisoindolin-4-yl)piperidin-4-yl)methyl)-2-methylpiperazin-1-yl)-N-(2-((R)-1-methylpyrrolidin-2-yl)-1H-pyrrolo[3,2-c]pyridin-6-yl)benzamide] | A (Category A: A ≥ 75% degradation)
≤ 100 | A (Category A: A ≥ 75% degradation) | A (Category A: A ≥ 75% degradation) | CN1CCC[C@@H]1c1cc2cnc(NC(=O)c3ccc(-c4cnn(CCOC5CCN(c6cccc(C(=O)N[C@H]7CCC(=O)NC7=O)n6)CC5)c4)cc3)cc2[nH]1 [Example 61, N—((S)-2,6-dioxopiperidin-3-yl)-6-(4-(2-(4-(4-((2-((R)-1-methylpyrrolidin-2-yl)-1H-pyrrolo[3,2-c]pyridin-6-yl)carbamoyl)phenyl)-1H-pyrazol-1-yl)ethoxy)piperidin-1-yl)picolinamide] | B (Category B: 50% ≤ B < 75% degradation)
≤ 100 | A (Category A: A ≥ 75% degradation) | A (Category A: A ≥ 75% degradation) | CN1CCC[C@@H]1c1cc2cnc(NC(=O)c3ccc(CCCC4CCN(c5cccc6c5CN(C5CCC(=O)NC5=O)C6=O)CC4)cc3F)cc2[nH]1 (mixture of isomers) [Example 174, 4-(3-(1-(2-(2,6-dioxopiperidin-3-yl)-1-oxoisoindolin-4-yl)piperidin-4-yl)propyl)-2-fluoro-N-(2-((R)-1-methylpyrrolidin-2-yl)-1H-pyrrolo[3,2-c]pyridin-6-yl)benzamide] | A (Category A: A ≥ 75% degradation)
≤ 100 | A (Category A: A ≥ 75% degradation) | A (Category A: A ≥ 75% degradation) | CN1CCC[C@@H]1c1cc2cnc(NC(=O)c3ccc(N4CCN(CC#Cc5cccc6c5CN(C5CCC(=O)NC5=O)C6=O)CC4)cc3F)cc2[nH]1 (stereo partly drawn) [Example 155, 4-(4-(3-(2-(2,6-dioxopiperidin-3-yl)-1-oxoisoindolin-4-yl)prop-2-yn-1-yl)piperazin-1-yl)-2-fluoro-N-(2-((R)-1-methylpyrrolidin-2-yl)-1H-pyrrolo[3,2-c]pyridin-6-yl)benzamide] | B (Category B: 50% ≤ B < 75% degradation)
